How the values were obtained:
[1] = test system: IL-2 production from PMA and αCD3 antibody stimulated human PBMCs; format: cell-based
[2] = test system: IFNγ production from PMA and αCD3 antibody stimulated human PBMCs; format: cell-based
[3] = test system: IL-2 production from αCD3 and αCD28 antibody stimulated human PBMCs; format: cell-based
[4] = test system: IFNγ production from αCD3 and αCD28 antibody stimulated human PBMCs; format: cell-based
[5] = test system: thapsigargin-induced IFN-g production in human whole blood; format: cell-based
[6] = test system: CD40L on CD4+ T cells in human whole blood; format: cell-based
[7] = test system: IL-2R on CD4+ T cells in human whole blood; format: cell-based
[8] = test system: adoptive transfer EAE model of multiple sclerosis; details: rat, in vivo, sc
[9] = test system: thapsigargin-induced IL-2 production in human whole blood
[10] = rat, in vivo, iv

For CC[C@H](C)[C@@H]1NC(=O)[C@@H](NC(=O)[C@H](CO)NC(=O)[C@@H](N)CCCNC(=N)N)CSSC[C@@H](C(=O)O)NC(=O)[C@H]([C@@H](C)O)NC(=O)CNC(=O)[C@@H]2CSSC[C@@H]3NC(=O)[C@H](CCC(N)=O)NC(=O)[C@H](Cc4ccccc4)NC(=O)[C@H](C)NC(=O)[C@H]([C@@H](C)O)NC(=O)[C@H](CSSC[C@H](NC(=O)[C@H](Cc4ccccc4)NC(=O)[C@H](CO)NC(=O)[C@H](CC(C)C)NC(=O)[C@H](CCCNC(=N)N)NC(=O)[C@H](Cc4ccc(O)cc4)NC(=O)[C@H](CCCCN)NC(=O)[C@H](CCSC)NC(=O)[C@H](CO)NC(=O)[C@H](Cc4cnc[nH]4)NC(=O)[C@H](CCCCN)NC3=O)C(=O)N[C@@H](CCCNC(=N)N)C(=O)N[C@@H](CCCCN)C(=O)N[C@@H]([C@@H](C)O)C(=O)N2)NC(=O)[C@H](CCCNC(=N)N)NC(=O)[C@H](CO)NC(=O)[C@H](CCCCN)NC(=O)[C@@H]2CCCN2C(=O)[C@H]([C@@H](C)CC)NC(=O)[C@H]([C@@H](C)O)NC(=O)[C@H](CC(=O)O)NC1=O [ShK, reference compound], the “inhibition of IL-2 production” value [1] was “partial inhibition”, the “inhibition of IFNγ production” value [2] was “partial inhibition” and the “inhibition of IL-2 production” value [3] was “partial inhibition”. The “inhibition of IFNg production” value [4] was “partial inhibition”, the “thapsigargin-induced IFN-g production in human whole blood” value [5] was “suppressed” and the “thapsigargin-induced upregulation of CD40L on T cells” value [6] was “suppressed”. The “thapsigargin-induced upregulation of the IL-2R on T cells” value [7] was “suppressed”, the “body weight lost (average)” value [8] was 30 g and the “disease severity and survival” value [8] was “developed severe disease and died”. The onset of disease [8] was 4 days, the “thapsigargin-induced IL-2 production in human whole blood” value [9] was “suppressed” and the “duration of significant suppression of Kv1.3 current (<70 POC) by serum” value [10] was no more than 1 h.

Source: patent US7820623B2 (priority 2006, dated 2010)
